# Assay results: US20260285857A1, “BICYCLIC AND HETEROCYCLIC AMIDE COMPOUNDS” (priority 2024, published 2026)
# Tested on: immunoglobulin light chain protein WIL-FL T46L
# Test: Differential scanning fluorimetry (thermal shift) assay
# Assay type: binding
# Conditions: Table A; temperature shift [Tm]compound-[Tm]vehicle; recombinant WIL-FL T46L
row,Compound,DSF
1,Cc1cc(N2CC[C@](C)(c3ccccc3)C2)cn2nc(C(=O)NC3CCN(c4cncnc4)C3)nc12 (stereo partly shown) [Compound 190],***** (>2.5° C.=*****)
2,Cc1cc(N2CC[C@](C)(c3ccccc3)C2)cn2nc(C(=O)N[C@@H]3CNC[C@@H]3O)nc12 [Compound 191],***** (>2.5° C.=*****)
3,Cc1cc(N2CC[C@](C)(c3ccccc3)C2)cn2nc(C(=O)NC3CCN(CC(=O)O)C3)nc12 (stereo partly shown) [Compound 192],***** (>2.5° C.=*****)
4,Cc1cc(N2CC[C@](C)(c3ccccc3)C2)cn2nc(C(=O)N[C@H]3CCN(CC(F)F)C3)nc12 [Compound 193],***** (>2.5° C.=*****)
5,Cc1cc(N2CC[C@](C)(c3ccccc3)C2)cn2nc(C(=O)N3C[C@@H]4CN(c5cccc(C(=O)O)n5)C[C@@H]4C3)nc12 [Compound 194],***** (>2.5° C.=*****)
6,Cc1cc(N2CC[C@](C)(c3ccccc3)C2)cn2nc(C(=O)N3CCC34CCCN(c3cccc(C(=O)O)n3)C4)nc12 (stereo partly shown) [Compound 195],***** (>2.5° C.=*****)
7,Cc1cc(N2CC[C@](C)(c3ccccc3)C2)cn2nc(C(=O)N3CCOCC3)nc12 [Compound 196],***** (>2.5° C.=*****)
8,Cc1cc(N2CC[C@](C)(c3ccccc3)C2)cn2nc(C(=O)N3CCCC(C(=O)O)C3)nc12 (stereo partly shown) [Compound 197],***** (>2.5° C.=*****)
9,Cc1cc(N2CC[C@](C)(c3ccccc3)C2)cn2nc(C(=O)NC3CCOCC3)nc12 [Compound 198],***** (>2.5° C.=*****)
10,Cc1cc(N2CC[C@](C)(c3ccccc3)C2)cn2nc(C(=O)NC3CC4CCC(C3)N4)nc12 (stereo partly shown) [Compound 199],***** (>2.5° C.=*****)
11,Cc1cc(N2CC[C@](C)(c3ccccc3)C2)cn2nc(C(=O)NC3C4CCC3NC4)nc12 (stereo partly shown) [Compound 201],***** (>2.5° C.=*****)
12,Cc1cc(N2CC[C@@](C)(c3ccccc3)C2)cn2nc(C(=O)NCC(O)C(F)(F)F)nc12 (stereo partly shown) [Compound 202],***** (>2.5° C.=*****)
13,Cc1cc(N2CC[C@](C)(c3ccccc3)C2)cn2nc(C(=O)NC3CNC(C(F)(F)F)C3)nc12 (stereo partly shown) [Compound 203],***** (>2.5° C.=*****)
14,Cc1cc(N2CC[C@](C)(c3ccccc3)C2)cn2nc(C(=O)NC34CCC(CO)(C3)C4)nc12 [Compound 204],***** (>2.5° C.=*****)
15,Cc1cc(N2CC[C@](C)(c3ccccc3)C2)cn2nc(C(=O)NC3CC(O)(C(F)(F)F)C3)nc12 (stereo partly shown) [Compound 205],***** (>2.5° C.=*****)
16,Cc1cc(N2CC[C@](C)(c3ccccc3)C2)cn2nc(C(=O)N[C@H](CO)C(C)C)nc12 [Compound 206],***** (>2.5° C.=*****)
17,Cc1cc(N2CC[C@](C)(c3ccccc3)C2)cn2nc(C(=O)NC34CCC(C(=O)O)(C3)C4)nc12 [Compound 207],***** (>2.5° C.=*****)
18,Cc1cc(N2CC[C@](C)(c3ccccc3)C2)cn2nc(C(=O)NC34CCC(C(C)(C)O)(C3)C4)nc12 [Compound 208],***** (>2.5° C.=*****)
19,Cc1cc(N2CC[C@](C)(c3ccccc3)C2)cn2nc(C(=O)NCC34COC(C(=O)O)(C3)C4)nc12 [Compound 209],***** (>2.5° C.=*****)
20,Cc1cc(N2CC[C@](C)(c3ccccc3)C2)cn2nc(C(=O)N3C[C@H]4C[C@@H]3C4C(=O)O)nc12 (stereo partly shown) [Compound 210],***** (>2.5° C.=*****)

row,Compound,DSF
1,Cc1cc(N2CC[C@](C)(c3ccccc3)C2)cn2nc(C(=O)N3C[C@@H]4C[C@H]3C4C(=O)O)nc12 (stereo partly shown) [Compound 211],***** (>2.5° C.=*****)
2,Cc1cc(N2CC[C@](C)(c3ccccc3)C2)cn2nc(C(=O)NC34COC(C(N)=O)(C3)C4)nc12 [Compound 212],***** (>2.5° C.=*****)
3,Cc1cc(N2CC[C@](C)(c3ccccc3)C2)cn2nc(C(=O)N3CC4CN(c5cccc(C(=O)O)n5)CC4C3)nc12 (stereo partly shown) [Compound 213],***** (>2.5° C.=*****)
4,Cc1cc(N2CC[C@](C)(c3ccccc3)C2)cn2nc(C(=O)N3CC4(CCN4C(=O)c4cccc(C(=O)O)n4)C3)nc12 [Compound 215],***** (>2.5° C.=*****)
5,Cc1cc(N2CC[C@](C)(c3ccccc3)C2)cn2nc(C(=O)N3CC4(CCC4Oc4cccc(C(=O)O)n4)C3)nc12 (stereo partly shown) [Compound 216],***** (>2.5° C.=*****)
6,Cc1cc(N2CC[C@](C)(c3ccccc3)C2)cn2nc(C(=O)NC3CN(c4cccc(C(=O)O)n4)C3)nc12 [Compound 217],***** (>2.5° C.=*****)
7,Cc1cc(N2CC[C@](C)(c3ccccc3)C2)cn2nc(C(=O)N3CCC4(CCN(c5nc(C(=O)O)cs5)C4)C3)nc12 (stereo partly shown) [Compound 218],***** (>2.5° C.=*****)
8,Cc1cc(N2CC[C@](C)(c3ccccc3)C2)cn2nc(C(=O)NC3CCCN(c4cccc(C(=O)O)n4)C3)nc12 (stereo partly shown) [Compound 219],***** (>2.5° C.=*****)
9,Cc1cc(N2CC[C@](C)(c3ccccc3)C2)cn2nc(C(=O)NC3COC4(CCN(c5cccc(C(=O)O)n5)C4)C3)nc12 (stereo partly shown) [Compound 220],***** (>2.5° C.=*****)
10,Cc1cc(N2CC[C@](C)(c3ccccc3)C2)cn2nc(C(=O)N3CC4(CC(Oc5cccc(C(=O)O)n5)C4)C3)nc12 [Compound 221],***** (>2.5° C.=*****)
11,Cc1cc(N2CC[C@](C)(c3ccccc3)C2)cn2nc(C(=O)N3CCC4(C3)CN(c3cccc(C(=O)O)n3)CCO4)nc12 (stereo partly shown) [Compound 222],***** (>2.5° C.=*****)
12,Cc1cc(N2CC[C@](C)(c3ccccc3)C2)cn2nc(C(=O)NC3CC4(C3)CN(c3ccnc(O)c3)C4)nc12 [Compound 223],***** (>2.5° C.=*****)
13,Cc1cc(N2CC[C@](C)(c3ccccc3)C2)cn2nc(C(=O)NC3CCC(c4ccc(C(=O)O)c(F)c4)CC3)nc12 (stereo partly shown) [Compound 224],***** (>2.5° C.=*****)
14,Cc1cc(N2CC[C@](C)(c3ccccc3)C2)cn2nc(C(=O)N[C@H]3CC[C@H](c4ccc(C(=O)O)c(F)c4)CC3)nc12 [Compound 225],***** (>2.5° C.=*****)
15,Cc1cc(N2CC[C@](C)(c3ccccc3)C2)cn2nc(C(=O)NC3CCC(c4ccnc(C(=O)O)c4)CC3)nc12 (stereo partly shown) [Compound 226],***** (>2.5° C.=*****)
16,Cc1cc(N2CC[C@](C)(c3ccccc3)C2)cn2nc(C(=O)NC3CCN(c4cc(C(=O)O)ccn4)CC3)nc12 [Compound 227],***** (>2.5° C.=*****)
17,Cc1cc(N2CC[C@](C)(c3ccccc3)C2)cn2nc(C(=O)NC3CCC34CN(c3cccc(C(=O)O)n3)C4)nc12 (stereo partly shown) [Compound 228],***** (>2.5° C.=*****)
18,Cc1cc(N2CC[C@](C)(c3ccccc3)C2)cn2nc(C(=O)NC3CCC(c4cccc(C(=O)O)n4)CC3)nc12 (stereo partly shown) [Compound 229],***** (>2.5° C.=*****)
19,Cc1cc(N2CC[C@](C)(c3ccccc3)C2)cn2nc(C(=O)NC3CN(c4cccc(C(=O)O)n4)CCC3(C)O)nc12 (stereo partly shown) [Compound 230],***** (>2.5° C.=*****)
20,Cc1cc(N2CC[C@](C)(c3ccccc3)C2)cn2nc(C(=O)N3CC4=C(C3)CN(c3cccc(C(=O)O)n3)C4)nc12 [Compound 231],***** (>2.5° C.=*****)

row,Compound,DSF
1,Cc1cc(N2CC[C@](C)(c3ccccc3)C2)cn2nc(C(=O)NC34CC3CN(c3cccc(C(=O)O)n3)C4)nc12 (stereo partly shown) [Compound 232],***** (>2.5° C.=*****)
2,COC(=O)c1n[nH]c(N2CCC3(CCN(C(=O)c4nc5c(C)cc(N6CC[C@](C)(c7ccccc7)C6)cn5n4)C3)C2)n1 (stereo partly shown) [Compound 233],***** (>2.5° C.=*****)
3,Cc1cc(N2CC[C@](C)(c3ccccc3)C2)cn2nc(C(=O)N3CCC4(CCN(c5nc(C(=O)O)nn5C)C4)C3)nc12 (stereo partly shown) [Compound 234],***** (>2.5° C.=*****)
4,Cc1cc(N2CC[C@](C)(c3ccccc3)C2)cn2nc(C(=O)N3CCC4(CCN(c5nc(C(=O)O)n[nH]5)C4)C3)nc12 (stereo partly shown) [Compound 235],***** (>2.5° C.=*****)
5,Cc1cc(N2CC[C@](C)(c3ccccc3)C2)cn2nc(C(=O)N3CCC4(CCN(c5ncn[nH]5)C4)C3)nc12 (stereo partly shown) [Compound 236],***** (>2.5° C.=*****)
6,Cc1cc(N2CC[C@](C)(c3ccccc3)C2)cn2nc(C(=O)NC3CCN(c4ncc(S(C)(=N)=O)cn4)C3)nc12 (stereo partly shown) [Compound 237],***** (>2.5° C.=*****)
7,Cc1cc(N2CC[C@](C)(c3ccccc3)C2)cn2nc(C(=O)NC3CCN(c4nccc(C(=O)O)n4)CC3)nc12 [Compound 238],***** (>2.5° C.=*****)
8,Cc1cc(N2CC[C@](C)(c3ccccc3)C2)cn2nc(C(=O)N3CCC4(CC3)CCN(c3cccc(C(=O)O)n3)C4)nc12 [Compound 239],***** (>2.5° C.=*****)
9,Cc1cc(N2CC[C@](C)(c3ccccc3)C2)cn2nc(C(=O)N3CC4(CCN(c5cccc(C(=O)O)n5)C4)C3)nc12 [Compound 240],***** (>2.5° C.=*****)
10,Cc1cc(N2CC[C@](C)(c3ccccc3)C2)cn2nc(C(=O)N3CCC4(C3)CN(c3cccc(C(=O)O)n3)C4)nc12 [Compound 241],***** (>2.5° C.=*****)
11,Cc1cc(N2CC[C@](C)(c3ccccc3)C2)cn2nc(C(=O)N3CCOC4(CCN(c5cccc(C(=O)O)n5)C4)C3)nc12 (stereo partly shown) [Compound 242],***** (>2.5° C.=*****)
12,Cc1cc(N2CC[C@](C)(c3ccccc3)C2)cn2nc(C(=O)NC3CC(=O)N(c4ccnc(C(=O)O)c4)C3)nc12 (stereo partly shown) [Compound 243],***** (>2.5° C.=*****)
13,Cc1cc(N2CC[C@](C)(c3ccccc3)C2)cn2nc(C(=O)N3CC4CN(c5cccc(C(=O)O)n5)CC4(F)C3)nc12 (stereo partly shown) [Compound 244],***** (>2.5° C.=*****)
14,Cc1cc(N2CC[C@](C)(c3ccccc3)C2)cn2nc(C(=O)NC3CCC4(CCN(c5cccc(C(=O)O)n5)C4)C3)nc12 (stereo partly shown) [Compound 245],***** (>2.5° C.=*****)
15,Cc1cc(N2CC[C@](C)(c3ccccc3)C2)cn2nc(C(=O)N3CC4CN(c5cccc(C(=O)O)n5)CC4(O)C3)nc12 (stereo partly shown) [Compound 246],***** (>2.5° C.=*****)
16,Cc1cc(N2CC[C@](C)(c3ccccc3)C2)cn2nc(C(=O)N3CC4C3CCCN4c3cccc(C(=O)O)n3)nc12 (stereo partly shown) [Compound 247],***** (>2.5° C.=*****)
17,Cc1cc(N2CC[C@](C)(c3ccccc3)C2)cn2nc(C(=O)N3CCC4(CCN(c5cccc(N)n5)C4)C3)nc12 (stereo partly shown) [Compound 248],***** (>2.5° C.=*****)
18,Cc1cc(N2CC[C@](C)(c3ccccc3)C2)cn2nc(C(=O)N3CC4CN(c5cccc(C(=O)O)n5)CC4(C(F)(F)F)C3)nc12 (stereo partly shown) [Compound 249],***** (>2.5° C.=*****)
